The text below walks through data of patent US20260070906A1, “IMIDAZO[4,5-C]PYRIDINE COMPOUNDS FOR THE TREATMENT OF CANCER” (Hoffmann-La Roche Inc., priority 2023, published 2026).

One test addresses T1, human TLR7 (Homo sapiens, UniProt Q9NYK1).
T1 construct: host or cells: HEK293-Blue-hTLR7 (HEK293)
T1 sequence (Q9NYK1 27-1049): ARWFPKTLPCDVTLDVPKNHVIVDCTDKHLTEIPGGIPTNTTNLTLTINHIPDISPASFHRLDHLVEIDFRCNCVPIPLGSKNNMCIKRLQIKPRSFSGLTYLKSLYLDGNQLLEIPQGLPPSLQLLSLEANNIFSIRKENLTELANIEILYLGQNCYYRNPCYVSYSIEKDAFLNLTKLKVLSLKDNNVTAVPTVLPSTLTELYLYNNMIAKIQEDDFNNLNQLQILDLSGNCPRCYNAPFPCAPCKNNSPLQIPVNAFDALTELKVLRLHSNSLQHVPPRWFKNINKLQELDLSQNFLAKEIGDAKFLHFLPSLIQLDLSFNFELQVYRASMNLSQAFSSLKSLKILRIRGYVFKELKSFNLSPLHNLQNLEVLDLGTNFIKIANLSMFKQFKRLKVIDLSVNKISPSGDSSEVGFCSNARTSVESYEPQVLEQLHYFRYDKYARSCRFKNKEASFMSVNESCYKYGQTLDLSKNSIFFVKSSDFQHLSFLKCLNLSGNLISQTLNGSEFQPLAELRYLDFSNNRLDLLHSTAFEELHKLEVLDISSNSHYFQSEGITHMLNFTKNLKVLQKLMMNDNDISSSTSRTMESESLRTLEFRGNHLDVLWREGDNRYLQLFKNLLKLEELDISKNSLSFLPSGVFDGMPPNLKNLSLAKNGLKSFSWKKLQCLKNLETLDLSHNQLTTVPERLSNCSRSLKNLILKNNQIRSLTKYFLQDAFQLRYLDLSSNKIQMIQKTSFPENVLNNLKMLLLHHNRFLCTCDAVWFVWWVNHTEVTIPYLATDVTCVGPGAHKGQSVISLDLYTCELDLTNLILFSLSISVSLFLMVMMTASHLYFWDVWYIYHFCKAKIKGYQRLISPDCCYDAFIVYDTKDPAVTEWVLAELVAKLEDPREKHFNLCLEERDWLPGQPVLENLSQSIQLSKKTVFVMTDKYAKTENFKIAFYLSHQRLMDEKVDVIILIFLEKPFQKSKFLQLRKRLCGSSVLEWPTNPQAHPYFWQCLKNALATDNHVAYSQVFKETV
As to the kind of experiment: HEK293-Blue-hTLR7 cells assay (NF-κB SEAP reporter). The format is cell-based. Particulars: 20 hrs incubation, agonism. From the text:
A stable HEK293-Blue-hTLR7 cell line was purchased from InvivoGen (Cat. #: hkb-htlr7, San Diego, California, USA). These cells were designed for studying the stimulation of human TLR7 by monitoring the activation of NF-κB. A SEAP (secreted embryonic alkaline phosphatase) reporter gene was placed under the control of the IFN-β minimal promoter fused to five NF-κB and AP-1-binding sites. The SEAP was induced by activating NF-κB and AP-1 via stimulating HEK-Blue hTLR7 cells with TLR7 ligands. Therefore the reporter expression was regulated by the NF-κB promoter upon stimulation of human TLR7 for 20 hrs. The cell culture supernatant SEAP reporter activity was determined using QUANTI-Blue™ kit (Cat. #: rep-qbl, Invivogen, San Diego, Ca, USA) at a wavelength of 650 nm, a detection medium that turns purple or blue in the presence of alkaline phosphatase.
HEK293-Blue-hTLR7 cells were incubated at a density of 250,000˜450,000 cells/mL in a volume of 180 μL in a 96-well plate in Dulbecco's Modified Eagle's medium (DMEM) containing 4.5 g/L glucose, 100 U/mL penicillin, 100 μg/mL streptomycin, 100 μg/mL Normocin, 1% (V/V) GlutaMAX™, 10% (V/V) heat-inactivated fetal bovine serum for 24 hrs. Then the HEK293-Blue-hTLR-7 cells were incubated with addition of 20 μL test compound in a serial dilution in the presence of final DMSO at 1% and perform incubation under 37° C. in a CO2 incubator for 20 hrs. Then 20 μL of the supernatant from each well was incubated with 180 μL Quanti-blue substrate solution at 37° C. for 1 hours and the absorbance was read at 620-655 nm using a spectrophotometer. The signalling pathway that TLR7 activation leads to downstream NF-κB activation has been widely accepted, and therefore similar reporter assay was also widely used for evaluating TLR7 agonist (Tsuneyasu Kaisho and Takashi Tanaka, Trends in Immunology, Volume 29, Issue 7, July 2008, […]; Hiroaki Hemmi et al, Nature Immunology 3, 196-200 (2002)).

In the next test the target is T2, human TLR8 (Homo sapiens, UniProt Q9NR97).
T2 construct: host or cells: HEK293-Blue-hTLR8 (HEK293)
T2 sequence (Q9NR97 27-1041): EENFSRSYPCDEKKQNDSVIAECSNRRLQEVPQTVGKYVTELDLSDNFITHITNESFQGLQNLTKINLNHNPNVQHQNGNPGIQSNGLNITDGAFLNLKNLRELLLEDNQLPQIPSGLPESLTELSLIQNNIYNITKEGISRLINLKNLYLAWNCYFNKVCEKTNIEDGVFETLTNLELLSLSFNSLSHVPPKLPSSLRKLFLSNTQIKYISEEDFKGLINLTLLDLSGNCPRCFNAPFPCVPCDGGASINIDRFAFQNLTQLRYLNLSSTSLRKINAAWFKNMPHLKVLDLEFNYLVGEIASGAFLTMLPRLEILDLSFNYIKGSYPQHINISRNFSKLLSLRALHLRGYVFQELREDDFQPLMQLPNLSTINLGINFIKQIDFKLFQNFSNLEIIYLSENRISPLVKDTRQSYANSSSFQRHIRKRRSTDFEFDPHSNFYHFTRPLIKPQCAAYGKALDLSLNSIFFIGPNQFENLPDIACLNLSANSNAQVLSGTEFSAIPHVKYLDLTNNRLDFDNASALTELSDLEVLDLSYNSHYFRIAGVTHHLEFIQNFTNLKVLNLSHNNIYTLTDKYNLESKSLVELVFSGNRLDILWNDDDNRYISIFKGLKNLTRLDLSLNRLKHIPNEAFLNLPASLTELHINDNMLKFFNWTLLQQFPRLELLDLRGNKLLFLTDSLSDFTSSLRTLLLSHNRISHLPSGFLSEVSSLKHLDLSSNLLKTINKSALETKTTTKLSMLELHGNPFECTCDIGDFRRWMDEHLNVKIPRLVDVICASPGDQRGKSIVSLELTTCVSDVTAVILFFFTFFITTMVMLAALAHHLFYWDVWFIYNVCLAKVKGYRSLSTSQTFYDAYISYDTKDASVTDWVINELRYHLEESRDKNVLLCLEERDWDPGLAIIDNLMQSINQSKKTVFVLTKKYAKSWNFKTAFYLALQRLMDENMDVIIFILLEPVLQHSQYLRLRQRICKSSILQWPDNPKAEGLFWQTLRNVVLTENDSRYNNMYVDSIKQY
As to the kind of experiment: HEK293-Blue-hTLR8 cells assay (NF-κB SEAP reporter). The format is cell-based. To be noted: 20 hours incubation, agonism. An excerpt: A stable HEK293-Blue-hTLR8 cell line was purchased from InvivoGen (Cat. #: hkb-htlr8, San Diego, California, USA). These cells were designed for studying the stimulation of human TLR8 by monitoring the activation of NF-κB. A SEAP (secreted embryonic alkaline phosphatase) reporter gene was placed under the control of the IFN-β minimal promoter fused to five NF-κB and AP-1-binding sites. The SEAP was induced by activating NF-κB and AP-1 via stimulating HEK-Blue hTLR8 cells with TLR8 ligands. Therefore the reporter expression was regulated by the NF-κB promoter upon stimulation of human TLR8. The cell culture supernatant SEAP reporter activity was determined using QUANTI-Blue™ kit (Cat. #: rep-qbl, Invivogen, San Diego, Ca, USA) at a wavelength of 650 nm, a detection medium that turns purple to blue in the presence of alkaline phosphatase.
HEK293-Blue-hTLR8 cells were incubated at a density of 250,000-450,000 cells/mL in a volume of 180 μL in a 96-well plate in Dulbecco's Modified Eagle's medium (DMEM) containing 4.5 g/L glucose, 100 U/mL penicillin, 100 μg/mL streptomycin, 100 μg/mL Normocin, 1% (V/V) GlutaMAX™, 10% (v/v) heat-inactivated fetal bovine serum for 24 hours. Then the HEK293-Blue-hTLR8 cells were incubated with addition of 20 μL test compound in a serial dilution in the presence of final DMSO at 1% and perform incubation under 37° C. in a CO2 incubator for 20 hours. Then 20 μL of the supernatant from each well was incubated with 180 μL Quanti-blue substrate solution at 37° C. for 1 hours and the absorbance was read at 620-655 nm using a spectrophotometer. The signalling pathway that TLR8 activation leads to downstream NF-κB activation has been widely accepted, and therefore similar reporter assay was also widely used for evaluating TLR8 agonist.

As for `CCOCc1nc2c(N)nc(C)c(Sc3ccc(CN(C)C)cc3)c2[nH]1` [Example 1, 7-[4-[(dimethylamino)methyl]phenyl]sulfanyl-2-(ethoxymethyl)-6-methyl-1H-imidazo[4,5-c]pyridin-4-amine], the EC50 turned out to be 0.027 µM on human TLR7 and 0.014 µM on human TLR8.
Regarding `CCCCc1nc2c(N)nc(C)c(Sc3ccc(CN(C)C)cc3)c2n1CC(C)(C)O` [Example 2, 1-[4-amino-2-butyl-7-[4-[(dimethylamino)methyl]phenyl]sulfanyl-6-methyl-imidazo[4,5-c]pyridin-1-yl]-2-methyl-propan-2-ol], the EC50 on human TLR7 was 0.035 µM; at human TLR8, 0.028 µM.
For the compound `CCOCc1nc2c(N)nc(C)c([Se]c3ccc(CN(C)C)cc3)c2n1CC(C)(C)O` [Example 3, 1-[4-amino-7-[4-[(dimethylamino)methyl]phenyl]selanyl-2-(ethoxymethyl)-6-methyl-imidazo[4,5-c]pyridin-1-yl]-2-methyl-propan-2-ol], the results for the EC50 on human TLR7 and on human TLR8 were 0.028 µM and 0.024 µM, respectively.
For `CCOCc1nc2c(N)nc(C)c(Sc3c(OC)cc(CN(C)C)cc3OC)c2[nH]1` [Example 4, 7-[4-[(dimethylamino)methyl]-2,6-dimethoxy-phenyl]sulfanyl-2-(ethoxymethyl)-6-methyl-1H-imidazo[4,5-c]pyridin-4-amine], in that order: 0.001 µM and 0.02 µM.
Turning to `CCCN(CC)Cc1ccc(Sc2c(C)nc(N)c3nc(COCC)[nH]c23)cc1` [Example 5, 2-(ethoxymethyl)-7-[4-[[ethyl(propyl)amino]methyl]phenyl]sulfanyl-6-methyl-1H-imidazo[4,5-c]pyridin-4-amine], the EC50 at human TLR7 was 0.018 µM; on human TLR8 it was 0.03 µM.
On to `CCOCc1nc2c(N)nc(C)c(Sc3ccc(CN(C)CC)cc3)c2[nH]1` [Example 6, 2-(ethoxymethyl)-7-[4-[[ethyl(methyl)amino]methyl]phenyl]sulfanyl-6-methyl-1H-imidazo[4,5-c]pyridin-4-amine], for which the EC50 turned out to be 0.015 µM at human TLR7 and 0.01 µM at human TLR8.
`CCOCc1nc2c(N)nc(C)c(Sc3ccc(CN(C)C)cc3)c2n1C` [Example 7, 7-[4-[(dimethylamino)methyl]phenyl]sulfanyl-2-(ethoxymethyl)-1,6-dimethyl-imidazo[4,5-c]pyridin-4-amine]: the EC50 was found to be 0.027 µM on human TLR7 and 0.026 µM at human TLR8.
`CCOCc1nc2c(N)nc(C)c(Sc3ccc(CN(C)C)cc3O)c2[nH]1` [Example 8, 2-[[4-amino-2-(ethoxymethyl)-6-methyl-1H-imidazo[4,5-c]pyridin-7-yl]sulfanyl]-5-[(dimethylamino)methyl]phenol]: the values for the EC50 on human TLR7 and on human TLR8 were 0.027 µM and 0.026 µM, respectively.
The matching figures for `CCOCc1nc2c(N)nc(C)c(Sc3ccc(CN(C)C)c(OC)c3)c2[nH]1` [Example 9, 7-[4-[(dimethylamino)methyl]-3-methoxy-phenyl]sulfanyl-2-(ethoxymethyl)-6-methyl-1H-imidazo[4,5-c]pyridin-4-amine]: 0.03 µM and 0.003 µM.
For `CCOCc1nc2c(N)nc(C)c(SCCc3ccc(CN(C)C)cc3)c2[nH]1` [Example 10, 7-[2-[4-[(dimethylamino)methyl]phenyl]ethylsulfanyl]-2-(ethoxymethyl)-6-methyl-1H-imidazo[4,5-c]pyridin-4-amine], the results for the EC50 at human TLR7 and on human TLR8 were 0.008 µM and 0.01 µM, respectively.
On to `CCOCc1nc2c(N)nc(C)c(Sc3ccc(CN(C)C)c(O)c3)c2[nH]1` [Example 11, 5-[[4-amino-2-(ethoxymethyl)-6-methyl-1H-imidazo[4,5-c]pyridin-7-yl]sulfanyl]-2-[(dimethylamino)methyl]phenol], for which the EC50 on human TLR7 worked out at 0.018 µM; at human TLR8 it was 0.004 µM.
For `CCOCc1nc2c(N)nc(C)c(Sc3ccc(CN(C)C)c(O)c3)c2n1C` [Example 12, 5-[4-amino-2-(ethoxymethyl)-1,6-dimethyl-imidazo[4,5-c]pyridin-7-yl]sulfanyl-2-[(dimethylamino)methyl]phenol], in that order: 0.01 µM and 0.003 µM.

As a reminder, the EC50 is the concentration that produces a half-maximal response. A higher EC50 goes with a need for much substance.
